Data reported in PubChem BioAssay AID2060898 (Molecular Pharmacology Branch, DTP, NCI, 2025).

Test system: 616215-338-R-J1-PDC complex spheroid viability
Assay: Anticancer human tumor 616215-338-R-J1-PDC patient-derived colon adenocarcinoma cell line growth inhibition [RAS]
Conditions: for IC50: curve of first compound; for viability, T/C: stronger effect = lower value
Procedure, shortened: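 Multi-cell-type spheroids: tumor cells plus HUVEC endothelial cells and mesenchymal stem cells. RAS-pathway inhibitors were combined with targeted agents, each dosed in half-log steps down from clinical Cmax, or from 10 microM when Cmax was unknown.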

[1] = second compound 0.00316 µM, first compound 0.0316 µM
[2] = second compound 0.00316 µM, first compound 0.1 µM
[3] = second compound 0.00316 µM, first compound 0.316 µM
[4] = second compound 0.00316 µM, first compound 1 µM
[5] = second compound 0.01 µM, first compound 0.0316 µM
[6] = second compound 0.01 µM, first compound 0.1 µM
[7] = second compound 0.01 µM, first compound 0.316 µM
[8] = second compound 0.01 µM, first compound 1 µM
[9] = second compound 0.0316 µM, first compound 0.0316 µM
[10] = second compound 0.0316 µM, first compound 0.1 µM
[11] = second compound 0.0316 µM, first compound 0.316 µM
[12] = second compound 0.0316 µM, first compound 1 µM
[13] = second compound 0.1 µM, first compound 0.0316 µM
[14] = second compound 0.1 µM, first compound 0.1 µM
[15] = second compound 0.1 µM, first compound 0.316 µM
[16] = second compound 0.1 µM, first compound 1 µM
[17] = second compound 0.316 µM, first compound 0.0316 µM
[18] = second compound 0.316 µM, first compound 0.1 µM
[19] = second compound 0.316 µM, first compound 0.316 µM
[20] = second compound 0.316 µM, first compound 1 µM
[21] = second compound 1 µM, first compound 0.0316 µM
[22] = second compound 1 µM, first compound 0.1 µM
[23] = second compound 1 µM, first compound 0.316 µM
[24] = second compound 1 µM, first compound 1 µM
[25] = second compound 0.00316 µM, first compound 0.000949 µM
[26] = second compound 0.00316 µM, first compound 0.003 µM
[27] = second compound 0.00316 µM, first compound 0.00949 µM
[28] = second compound 0.00316 µM, first compound 0.03 µM
[29] = second compound 0.00316 µM, first compound 0.0949 µM
[30] = second compound 0.00316 µM, first compound 0.3 µM
[31] = second compound 0.01 µM, first compound 0.000949 µM
[32] = second compound 0.01 µM, first compound 0.003 µM
[33] = second compound 0.01 µM, first compound 0.00949 µM
[34] = second compound 0.01 µM, first compound 0.03 µM
[35] = second compound 0.01 µM, first compound 0.0949 µM
[36] = second compound 0.01 µM, first compound 0.3 µM
[37] = second compound 0.0316 µM, first compound 0.000949 µM
[38] = second compound 0.0316 µM, first compound 0.003 µM
[39] = second compound 0.0316 µM, first compound 0.00949 µM
[40] = second compound 0.0316 µM, first compound 0.03 µM
[41] = second compound 0.0316 µM, first compound 0.0949 µM
[42] = second compound 0.0316 µM, first compound 0.3 µM
[43] = second compound 0.1 µM, first compound 0.000949 µM
[44] = second compound 0.1 µM, first compound 0.003 µM
[45] = second compound 0.1 µM, first compound 0.00949 µM
[46] = second compound 0.1 µM, first compound 0.03 µM
[47] = second compound 0.1 µM, first compound 0.0949 µM
[48] = second compound 0.1 µM, first compound 0.3 µM
[49] = second compound 0.316 µM, first compound 0.000949 µM
[50] = second compound 0.316 µM, first compound 0.003 µM
[51] = second compound 0.316 µM, first compound 0.00949 µM
[52] = second compound 0.316 µM, first compound 0.03 µM
[53] = second compound 0.316 µM, first compound 0.0949 µM
[54] = second compound 0.316 µM, first compound 0.3 µM
[55] = second compound 1 µM, first compound 0.000949 µM
[56] = second compound 1 µM, first compound 0.003 µM
[57] = second compound 1 µM, first compound 0.00949 µM
[58] = second compound 1 µM, first compound 0.03 µM
[59] = second compound 1 µM, first compound 0.0949 µM
[60] = second compound 1 µM, first compound 0.3 µM
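Further: spheroids exposed to agents for seven days before viability readout.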
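Wherever viability, T/C is given: 100% = DMSO vehicle control viability.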

## CC(=O)OC12COC1CC(O)C1(C)C(=O)C(O)C3=C(C)C(OC(=O)C(O)C(NC(=O)OC(C)(C)C)c4ccccc4)CC(O)(C(OC(=O)c4ccccc4)C21)C3(C)C (stereo not drawn) + C=CC(=O)N1CCN(c2nc(OCC3CCCN3C)nc3c(F)c(-c4nc(N)cc(C)c4C(F)(F)F)c(Cl)cc23)C(C)C1
Second compound 0.00316 µM
  IC50: < 31.6 nM
Second compound 0.01 µM
  IC50: < 31.6 nM
Second compound 0.0316 µM
  IC50: < 31.6 nM
Second compound 0.1 µM
  IC50: < 31.6 nM
Second compound 0.316 µM
  IC50: < 31.6 nM
Second compound 1 µM
  IC50: < 31.6 nM
[1]
  viability, T/C: 28%
[2]
  viability, T/C: 22.4%
[3]
  viability, T/C: 18.4%
[4]
  viability, T/C: 18.6%
Second compound 0.00316 µM, first compound 3.16 µM
  viability, T/C: 18.3%
Second compound 0.00316 µM, first compound 10 µM
  viability, T/C: 24.5%
[5]
  viability, T/C: 25.3%
[6]
  viability, T/C: 21.4%
[7]
  viability, T/C: 17.5%
[8]
  viability, T/C: 20.5%
Second compound 0.01 µM, first compound 3.16 µM
  viability, T/C: 18.7%
Second compound 0.01 µM, first compound 10 µM
  viability, T/C: 21.2%
[9]
  viability, T/C: 21.3%
[10]
  viability, T/C: 23.9%
[11]
  viability, T/C: 16.5%
[12]
  viability, T/C: 18.5%
Second compound 0.0316 µM, first compound 3.16 µM
  viability, T/C: 20%
Second compound 0.0316 µM, first compound 10 µM
  viability, T/C: 21.9%
[13]
  viability, T/C: 24.3%
[14]
  viability, T/C: 20.6%
[15]
  viability, T/C: 20.6%
[16]
  viability, T/C: 16.4%
Second compound 0.1 µM, first compound 3.16 µM
  viability, T/C: 21.1%
Second compound 0.1 µM, first compound 10 µM
  viability, T/C: 21%
[17]
  viability, T/C: 22.3%
[18]
  viability, T/C: 22.3%
[19]
  viability, T/C: 17.2%
[20]
  viability, T/C: 18.5%
Second compound 0.316 µM, first compound 3.16 µM
  viability, T/C: 20.8%
Second compound 0.316 µM, first compound 10 µM
  viability, T/C: 23.9%
[21]
  viability, T/C: 22.4%
[22]
  viability, T/C: 20.4%
[23]
  viability, T/C: 18.7%
[24]
  viability, T/C: 17.3%
Second compound 1 µM, first compound 3.16 µM
  viability, T/C: 23%
Second compound 1 µM, first compound 10 µM
  viability, T/C: 24.8%

## CC1(C)CCC(Nc2ncc(C(F)(F)F)c(-c3c[nH]c4c(P(C)(C)=O)c(C#N)ccc34)n2)CN1 (stereo not drawn) + C=CC(=O)N1CCN(c2nc(OCC3CCCN3C)nc3c(F)c(-c4nc(N)cc(C)c4C(F)(F)F)c(Cl)cc23)C(C)C1
Second compound 0.00316 µM
  IC50: 12.8 nM
Second compound 0.01 µM
  IC50: 11.8 nM
Second compound 0.0316 µM
  IC50: 15.1 nM
Second compound 0.1 µM
  IC50: 16.1 nM
Second compound 0.316 µM
  IC50: 16.1 nM
Second compound 1 µM
  IC50: 8.99 nM
[25]
  viability, T/C: 103%
[26]
  viability, T/C: 102%
[27]
  viability, T/C: 56.7%
[28]
  viability, T/C: 33.5%
[29]
  viability, T/C: 25.2%
[30]
  viability, T/C: 28.3%
[31]
  viability, T/C: 109%
[32]
  viability, T/C: 97.8%
[33]
  viability, T/C: 54%
[34]
  viability, T/C: 32%
[35]
  viability, T/C: 30.2%
[36]
  viability, T/C: 25.7%
[37]
  viability, T/C: 103%
[38]
  viability, T/C: 108%
[39]
  viability, T/C: 62.3%
[40]
  viability, T/C: 35.4%
[41]
  viability, T/C: 29.2%
[42]
  viability, T/C: 31%
[43]
  viability, T/C: 106%
[44]
  viability, T/C: 101%
[45]
  viability, T/C: 64%
[46]
  viability, T/C: 33.8%
[47]
  viability, T/C: 27.8%
[48]
  viability, T/C: 27.6%
[49]
  viability, T/C: 102%
[50]
  viability, T/C: 97.3%
[51]
  viability, T/C: 61.9%
[52]
  viability, T/C: 36.6%
[53]
  viability, T/C: 29.1%
[54]
  viability, T/C: 28.7%
[55]
  viability, T/C: 99.7%
[56]
  viability, T/C: 94.1%
[57]
  viability, T/C: 47.7%
[58]
  viability, T/C: 33.8%
[59]
  viability, T/C: 34.7%
[60]
  viability, T/C: 28.4%

## CCc1c2c(nc3ccc(O)cc13)-c1cc3c(c(=O)n1C2)COC(=O)[C@]3(O)CC + C=CC(=O)N1CCN(c2nc(OCC3CCCN3C)nc3c(F)c(-c4nc(N)cc(C)c4C(F)(F)F)c(Cl)cc23)C(C)C1
Second compound 0.00316 µM
  IC50: 8.93 nM
Second compound 0.01 µM
  IC50: 8.71 nM
Second compound 0.0316 µM
  IC50: 13.8 nM
Second compound 0.1 µM
  IC50: 9.38 nM
Second compound 0.316 µM
  IC50: 14.1 nM
Second compound 1 µM
  IC50: 8.32 nM
[25]
  viability, T/C: 98%
[26]
  viability, T/C: 103%
[27]
  viability, T/C: 47.2%
[28]
  viability, T/C: 27%
[29]
  viability, T/C: 20.6%
[30]
  viability, T/C: 16.9%
[31]
  viability, T/C: 99.3%
[32]
  viability, T/C: 106%
[33]
  viability, T/C: 45.8%
[34]
  viability, T/C: 30.2%
[35]
  viability, T/C: 23.6%
[36]
  viability, T/C: 17.6%
[37]
  viability, T/C: 107%
[38]
  viability, T/C: 115%
[39]
  viability, T/C: 59.9%
[40]
  viability, T/C: 32.5%
[41]
  viability, T/C: 18.4%
[42]
  viability, T/C: 14.9%
[43]
  viability, T/C: 112%
[44]
  viability, T/C: 109%
[45]
  viability, T/C: 48.5%
[46]
  viability, T/C: 29.4%
[47]
  viability, T/C: 20.1%
[48]
  viability, T/C: 16.5%
[49]
  viability, T/C: 110%
[50]
  viability, T/C: 98.1%
[51]
  viability, T/C: 57.7%
[52]
  viability, T/C: 32.4%
[53]
  viability, T/C: 16.3%
[54]
  viability, T/C: 12.8%
[55]
  viability, T/C: 106%
[56]
  viability, T/C: 110%
[57]
  viability, T/C: 42.5%
[58]
  viability, T/C: 28.2%
[59]
  viability, T/C: 22.9%
[60]
  viability, T/C: 15.4%

## Nc1ccn(C2OC(CO)C(O)C2(F)F)c(=O)n1 (stereo not drawn) + C=CC(=O)N1CCN(c2nc(OCC3CCCN3C)nc3c(F)c(-c4nc(N)cc(C)c4C(F)(F)F)c(Cl)cc23)C(C)C1
Second compound 0.00316 µM
  IC50: 11.8 nM
Second compound 0.01 µM
  IC50: 11.7 nM
Second compound 0.0316 µM
  IC50: 14.7 nM
Second compound 0.1 µM
  IC50: 15.4 nM
Second compound 0.316 µM
  IC50: 8.51 nM
Second compound 1 µM
  IC50: 9.78 nM
Second compound 0.00316 µM, first compound 0.00316 µM
  viability, T/C: 96.1%
Second compound 0.00316 µM, first compound 0.01 µM
  viability, T/C: 53.2%
[1]
  viability, T/C: 29.3%
[2]
  viability, T/C: 14.4%
[3]
  viability, T/C: 14.2%
[4]
  viability, T/C: 17.6%
Second compound 0.01 µM, first compound 0.00316 µM
  viability, T/C: 109%
Second compound 0.01 µM, first compound 0.01 µM
  viability, T/C: 54.9%
[5]
  viability, T/C: 18.7%
[6]
  viability, T/C: 15.8%
[7]
  viability, T/C: 12.9%
[8]
  viability, T/C: 16.3%
Second compound 0.0316 µM, first compound 0.00316 µM
  viability, T/C: 108%
Second compound 0.0316 µM, first compound 0.01 µM
  viability, T/C: 65.1%
[9]
  viability, T/C: 20.1%
[10]
  viability, T/C: 13%
[11]
  viability, T/C: 9.07%
[12]
  viability, T/C: 16.4%
Second compound 0.1 µM, first compound 0.00316 µM
  viability, T/C: 88.9%
Second compound 0.1 µM, first compound 0.01 µM
  viability, T/C: 64%
[13]
  viability, T/C: 27%
[14]
  viability, T/C: 14%
[15]
  viability, T/C: 13.4%
[16]
  viability, T/C: 14.6%
Second compound 0.316 µM, first compound 0.00316 µM
  viability, T/C: 111%
Second compound 0.316 µM, first compound 0.01 µM
  viability, T/C: 39.9%
[17]
  viability, T/C: 21%
[18]
  viability, T/C: 11.6%
[19]
  viability, T/C: 14.9%
[20]
  viability, T/C: 20.7%
Second compound 1 µM, first compound 0.00316 µM
  viability, T/C: 90.7%
Second compound 1 µM, first compound 0.01 µM
  viability, T/C: 49%
[21]
  viability, T/C: 25.6%
[22]
  viability, T/C: 16.8%
[23]
  viability, T/C: 12.6%
[24]
  viability, T/C: 17.6%
